Consider 4 molecules from EP2799074A1, “Iron bis-glycinate chelate for use in the oral treatment of anemia in patients with celiac disease” (Laboratori Baldacci S.P.A., priority 2009, dated 2011).

Values joined by “and” are separate entries in the source; they are usually repeats but may differ in a detail not shown here. Identical values can stand only once. Like-named read-outs stand apart in the source and are kept apart here.

For data set [1] the following is noted: with respect to mineral salts, such as ferrous sulphate; literature data; cited from earlier work.
In data set [2] the test system is celiac subjects, with sideropenic anemia. As to the kind of experiment: Efficiency comparison between oral iron bis-glycinate chelate (effervescent tablet of example 1) and conventional treatment in celiac patients; haemochromocytometric test. It is filed as in vivo, human. The settings on record: for Hb values / Serum iron values / Values of Ferritin: one patient per line; for Serum iron values / Values of Ferritin: after initial therapy (Fe sulphate p.o. and/or sodium ferric gluconate i.v.). An excerpt:
12 celiac subjects, with sideropenic anemia diagnosed according to the hemoglobin (Hb), ferritin and iron (serum iron) values obtained from the haemochromocytometric test were included in this experiment.
Celiac disease was diagnosed according to the clinical manifestations and histology reports regarding the intestinal mucosa.
These patients were then subjected to a therapy using the iron bis-glycinate chelate according to the invention, formulated in the effervescent tablet of example 1.
The hemoglobin (Hb), (Table 1), ferritin (Table 2) and serum iron (Table 3) values taken from each treated patient, both after the conventional therapy (oral and/or intravenous) and after the oral administration according to the present invention (effervescent tablet) were considered for the evaluation.
A therapy cycle corresponds to the treatment for 20 days with two effervescent tablets per day containing about 14 mg of iron ion per tablet and then, an effervescent tablet per day containing 14 mg of iron ion, for further 40 days.
The subsequent maintenance corresponds to the treatment for 20 days with two effervescent tablets per day containing about 14 mg of iron ion per tablet, every 3 months for about one year.
The hemoglobin, ferritin and serum iron blood values were determined after the first treatment cycle and the treatment was continued with repeated cycles according to the previously indicated methods.

For data set [3] the following is noted: cited from earlier work.
The test system of data set [4] is celiac patients. Briefly: Clinical records of celiac patients treated with conventional iron salts p.o. and i.v. (Examples 6-11).
Method: (§1) All patients were initially treated with ferrous sulphate orally (1 tablet of ferrous sulphate, corresponding to 105 mg of iron ion) for 40 days and/or with sodium ferric gluconate by intravenous administration for a variable period of time according to the seriousness of the anemic status.
(§2) All patients were diagnosed with celiac disease through bioptic sampling and with serological tests. During the conventional therapy, the diet of said patients was controlled and corrected with gluten-free foods.
Data set [5] relates to celiac patients. The settings on record: human, in vivo.
Method: as §1, §2
Setting [6] is: Patient I, ferrous sulphate oral, Final values, 40 days.
Where [7] appears, read: Patient I, ferrous sulphate oral, Initial values, 40 days.
Setting [8] is: Patient II, ferrous sulphate oral, Final values, 8/10 days.
Setting [9] is: Patient II, ferrous sulphate oral, Initial values, 8/10 days.
[10] abbreviates: Patient III, ferrous sulphate oral, Final values, 40 days.
Where [11] appears, read: Patient III, ferrous sulphate oral, Initial values, 40 days.
Where [12] appears, read: Patient V, ferrous sulphate oral, Final values, 40 days.
Where [13] appears, read: Patient V, ferrous sulphate oral, Initial values, 40 days.
[14] abbreviates: Patient I, iron polymaltosate oral, Final values, 20 days.
[15] abbreviates: Patient I, iron polymaltosate oral, Initial values, 20 days.
Where [16] appears, read: Patient I, ferric iron i.v., Final values, 20 days.
Where [17] appears, read: Patient I, ferric iron i.v., Initial values, 20 days.
Setting [18] is: Patient II, ferric iron i.v., Final values, few days.
The mark [19] stands for this setting: Patient II, ferric iron i.v., Initial values, few days.
The mark [20] stands for this setting: Patient IV, ferric iron i.v., Final values, 20 days.
The mark [21] stands for this setting: Patient IV, ferric iron i.v., Initial values, 20 days.
[22] abbreviates: Patient VI, iron i.v., Final values, 20 days.
[23] abbreviates: Patient VI, iron i.v., Initial values, 20 days.

As to `NCC(=O)[O-].NCC(=O)[O-].[Fe+2]` [Iron bis-glycinate chelate, iron bis-glycinate chelate], in data set [1], the bioavailability entry is “greater bioavailability”. Also, the “hemoglobin, ferritin and serum iron value” in data set [2] (after I therapy cycle, celiac patients) was “considerably increases”. Further, the Hb values was 12.5 g/100 ml and 12.0 g/100 ml (2×) and 13.1 g/100 ml and 11.7 g/100 ml and 11.8 g/100 ml and 12.8 g/100 ml and 12.3 g/100 ml and 12.7 g/100 ml and 11.9 g/100 ml and 12.1 g/100 ml and 10.0 g/100 ml in data set [2] (after efferv. tab therapy 1st cycle: two effervescent tablets per day for 20 days, then one per day for 40 days); 13.6 g/100 ml and 12.9 g/100 ml (2×) and 14.3 g/100 ml and 13.4 g/100 ml (2×) and 13.2 g/100 ml and 12.3 g/100 ml and 14.0 g/100 ml and 13.1 g/100 ml and 12.7 g/100 ml and 12.1 g/100 ml in data set [2] (after maintenance efferv. tab.: two tablets per day for 20 days every 3 months for about one year). In data set [2] (oral treatment of 12 celiac patients with the effervescent tablet of example 1), the adverse effects entry is given as “did not reveal any adverse effects worth mentioning”. For the same molecule, the hydrolysis entry in data set [3] (different pH values of the gastrointestinal section) was “does not undergo hydrolysis”. In addition, in data set [3] (pH interval comprised between 3 and 10), the “separation into iron ion” value is “not separated into iron ion”.

Regarding `O=S(=O)([O-])[O-].[Fe+2]` [ferrous sulphate], in data set [2], the Serum iron values is 34 µg/dL and 16 µg/dL. Besides, in data set [2], the “Values of Ferritin” value is 23 ng/mL and <5 ng/mL. In addition, in the data set on celiac patients [4] (Patient I - Female), the “tolerability / adverse events of the treatment” value (from here on “tolerability / adverse events”) is “intestinal intolerance”. For the same molecule, the Ferritin in the data set on celiac patients [4] (setting [6]) is recorded as 38; in the data set with celiac patients [4] (setting [7]), 32; in the data set on celiac patients [4] (setting [8]), 45; in the data set on celiac patients [4] (setting [9]) it was 41; in the data set on celiac patients [4] (setting [10]), 27; in the data set on celiac patients [4] (setting [11]), 19. The Ferritin in the data set with celiac patients [4] (setting [12]) is 21; with celiac patients [4] (setting [13]), below 5. For the same molecule, the Serum iron in the data set on celiac patients [4] (setting [6]) is recorded as 48; in the data set with celiac patients [4] (setting [7]), 41; in the data set with celiac patients [4] (setting [8]) it was 68; in the data set on celiac patients [4] (setting [9]), 55; with celiac patients [4] (setting [10]) it was 38; in the data set on celiac patients [4] (setting [11]), 32. Also, the results for the Serum iron in the data set on celiac patients [4] (setting [12]) and in the data set on celiac patients [4] (setting [13]) were 46 and 22, respectively. The Hb in the data set with celiac patients [4] (Patient I, ferrous sulphate oral, Final values, duration 40 days) stood at 11.1; in the data set with celiac patients [4] (Patient I, ferrous sulphate oral, Initial values, duration 40 days) it was 10.2; with celiac patients [4] (setting [8]) it was 12.3; in the data set on celiac patients [4] (setting [9]) it was 11.6; in the data set on celiac patients [4] (setting [10]) it was 10; with celiac patients [4] (setting [11]), 9.1. The Hb worked out at 8.4 in the data set with celiac patients [4] (Patient V, ferrous sulphate oral, after several therapy cycles, Initial values, 40 days) and 9.7 in the data set on celiac patients [4] (setting [12]).

Regarding iron polymaltosate, the “tolerability / adverse events” value in the data set with celiac patients [5] is “well tolerated”. In the data set on celiac patients [4] (setting [14]), the Ferritin came out at 25, the Hb worked out at 10.8 and the Serum iron is 43. Besides, in the data set on celiac patients [4] (setting [15]), the Ferritin was 29, the Hb was 10.6 and the Serum iron was found to be 38.

For the molecule sodium ferric gluconate, the “tolerability / adverse events” value in the data set with celiac patients [5] (iv) was “skin rush and asthmatic crisis”. Moreover, the Serum iron values in data set [2] stood at 30 µg/dL. The “Values of Ferritin” value in data set [2] worked out at 22 ng/mL. Besides, the Ferritin in the data set with celiac patients [4] (setting [16]) is reported as 30; in the data set on celiac patients [4] (setting [17]), below 5; with celiac patients [4] (setting [18]) it was 33; with celiac patients [4] (setting [19]), 31; with celiac patients [4] (setting [20]), 42; in the data set on celiac patients [4] (setting [21]), 21. Further, the Ferritin in the data set with celiac patients [4] (setting [22]) was found to be 81; in the data set with celiac patients [4] (setting [23]) it was 35. The Hb in the data set with celiac patients [4] (setting [16]) is given as 9.8; with celiac patients [4] (Patient I, ferric iron i.v., Initial values, 20 days, 1 vial/day for 10 days, then 2 vials/day), 7.7; with celiac patients [4] (Patient II, ferric iron i.v., Final values, few days, cycle not completed) it was 10.8; in the data set with celiac patients [4] (Patient II, ferric iron i.v., Initial values, few days, cycle not completed), 10.4; in the data set with celiac patients [4] (setting [20]) it was 10.6; with celiac patients [4] (Patient IV, ferric iron i.v., Initial values, 20 days, 1 vial/day for 10 days, then 2 vials/day), 9.7. Also, the results for the Hb in the data set with celiac patients [4] (setting [22]) and in the data set with celiac patients [4] (setting [23]) were 12.6 and 10.2, respectively. The Serum iron is recorded as 48 with celiac patients [4] (setting [16]); 19 in the data set on celiac patients [4] (setting [17]); 49 in the data set with celiac patients [4] (setting [18]); 40 with celiac patients [4] (setting [19]); 54 in the data set on celiac patients [4] (setting [20]); 39 in the data set with celiac patients [4] (setting [21]). The Serum iron amounted to 68 in the data set on celiac patients [4] (setting [22]) and 41 in the data set on celiac patients [4] (setting [23]). For the same molecule, the “values of Hb” value in the data set on celiac patients [4] (Patient IV, iron i.v., cycles every 3/4 months) is “around 11 gr/dl”.
